Experimental findings from patent publication US4634704A, “Anti-allergic five membered heterocyclic ring containing N-(bicyclic heterocycyl)-4-piperidinamines” (Janssen Pharmaceutica, N.V., priority 1984, dated 1987) are described below.

SMILES strings stand for the structures. Counter-ions that a name gives are not always drawn.

One assay has as its system compound 48/80-induced lethality. Kind of assay: Protection of rats from compound 48/80-induced lethality. In kind it is in vivo, rat (male, inbred Wistar strain). The conditions noted are these: Rattus norvegicus, 4 h, read-out: compound 48/80 lethality test in rats-ED50, dose protecting 50% of animals; subcutaneous or oral, 1 h before compound 48/80 0.5 mg/kg i.v.; survival after 4 h. The method, then:
Protection of rats from compound 48/80-induced lethality.
The protection from compound 48/80-induced lethal circulatory collapse appears to be a simple way of evaluating quantitatively the antihistaminic activity of test compounds. Male rats of an inbred Wistar strain, weighing 240-260 g were used in the experiment. After overnight starvation the rats were transferred to conditioned laboratories (temp.=21±1° C., relative humidity=65±5%).
The rats were treated subcutaneously or orally with a test compound or with the solvent (NaCl solution, 0.9%). […] Survival after 4 hours is therefore considered to be a safe criterion of a protective effect of drug administration.
The ED50 -values of the compounds of formula (I) are listed in the first column of table 1. Said ED50 -values are the values in mg/kg body weight at which the tested compounds protect 50% of the tested animals against compound 48/80-induced lethality.
Turning to `CCc1nnc(NCCN2CCC(Nc3nc4ccccc4n3Cc3ccc(F)cc3)CC2)s1` [Compound 33], the ED50 was 0.16 mg/kg. Same read-out and setting: then `c1coc(Cn2c(NC3CCN(CCNc4nccs4)CC3)nc3cccnc32)c1` [Compound 56], with 0.01 mg/kg; and `O=C(Cc1c[nH]c2ccccc12)NCCN1CCC(Nc2nc3ccccc3n2Cc2ccc(F)cc2)CC1` [Compound 77, N-[2-[4-[[1-[(4-fluorophenyl)methyl]-1H-benzimidazol-2-yl]amino]-1-piperidinyl]ethyl]-1H-indol-3-acetamide], with 0.16 mg/kg. Turning to `Fc1ccc(Cn2c(NC3CCN(CCNc4nccs4)CC3)nc3ccncc32)cc1` [Compound 23], the ED50 stood at 0.08 mg/kg.

Turning to `Cn1c(C(=O)NCCN2CCC(Nc3nc4ccccc4n3Cc3ccc(F)cc3)CC2)cc2ccccc21` [Compound 78, N-[2-[4-[[1-[(4-fluorophenyl)methyl]-1H-benzimidazol-2-yl]amino]-1piperidinyl]ethyl]-1-methyl-1H-indole-2-carboxamide], the ED50 was 0.16 mg/kg. On the same count and under the same terms, then `CN(c1nc2ccccc2n1Cc1ccc(F)cc1)C1CCN(CCNc2nccs2)CC1` [Compound 26], with 0.02 mg/kg; and `Nc1ccc(Cn2c(NC3CCN(CCNc4nccs4)CC3)nc3ccccc32)cc1` [Compound 35], with 0.31 mg/kg. Turning to `c1ccc(Cn2c(NC3CCN(CCNc4nccs4)CC3)nc3cccnc32)nc1` [Compound 57], the ED50 was found to be 0.005 mg/kg. The same measure, in the same setting: then `CN(CCN1CCC(Nc2nc3ccccc3n2Cc2ccc(F)cc2)CC1)c1nccs1` [Compound 50, 1-[(4-fluorophenyl)methyl]-N-[1-[2-[methyl(2-thiazolyl)amino]ethyl]-4-piperidinyl]-1H-benzimidazol-2-amine], with 0.08 mg/kg; and `CNC(=S)N(CCN1CCC(Nc2nc3ccccc3n2Cc2ccc(F)cc2)CC1)c1nccs1` [Compound 104, N-[2-[4-[[1-[(4-fluorophenyl)methyl]-1H-benzimidazol-2-yl]amino]-1-piperidinyl]ethyl]-N'-methyl-N-(2-thiazolyl)thiourea], with 0.16 mg/kg; and `COc1ccc(Cn2c(NC3CCN(CCNc4nccs4)CC3)nc3ccccc32)cc1` [Compound 24], with 0.31 mg/kg.

As to `Fc1ccc(Cn2c(NC3CCN(CCCNc4nccs4)CC3)nc3ccccc32)cc1` [Compound 20], the ED50 worked out at 0.16 mg/kg. As for `c1ccc(Cn2c(NC3CCN(CCNc4nccs4)CC3)nc3ccccc32)nc1` [Compound 27], the ED50 was 0.04 mg/kg. On to `Fc1ccc(Cn2ccnc2NCCN2CCC(Nc3nc4ccccc4n3Cc3ccc(F)cc3)CC2)cc1` [Compound 82, 1-[(4-fluorophenyl)methyl]-N-[1-[2-[[1-[(4-fluorophenyl)methyl]-1H-imidazol-2-yl]amino]ethyl]-4-piperidinyl]-1H-benzimidazol-2-amine cyclohexanesulfamate(1:3).dihydrate], for which the ED50 turned out to be 0.16 mg/kg.

With `Fc1ccc(Cn2c(NC3CCN(CCc4csc(-c5ccccc5)n4)CC3)nc3ccccc32)cc1` [Compound 92, 1-[(4-fluorophenyl)methyl]-N-[1-[2-(2-phenyl-4-thiazolylethyl]-4-piperidinyl]-1H-benzimidazol-2-aminedihydrochloride monohydrate], the ED50 was 0.63 mg/kg. Still for that read-out and setting: then `O=[N+]([O-])c1ccc(Cn2c(NC3CCN(CCNc4nccs4)CC3)nc3ccccc32)cc1` [Compound 43], with 0.31 mg/kg; and `Fc1ccc(Cn2c(NC3CCN(CCOc4nc5ccccc5s4)CC3)nc3ccccc32)cc1` [Compound 67, N-[1-[2-(2-benzothiazolyloxy)ethyl]-4-piperidinyl]-1-[(4-fluorophenyl)methyl]-1H-benzimidazol-2-amine], with 0.63 mg/kg; and `Fc1ccc(Cn2c(NC3CCN(Cc4nc5ccccc5[nH]4)CC3)nc3ccccc32)cc1.O` [Compound 2, N-[1-(1H-benzimidazol-2-ylmethyl)-4-piperidinyl]-1-(4fluorophenylmethyl)-1H-benzimidazol-2-amine monohydrate], with 0.63 mg/kg. With `N=C(NCCN1CCC(Nc2nc3ccccc3n2Cc2ccc(F)cc2)CC1)Nc1nc2ccccc2[nH]1` [Compound 66, N-(1H-benzimidazol-2-yl)-N'-[2-[4-[[1-[(4-fluorophenyl)methyl]-1H-benzimidazol-2-yl]amino]-1-piperidinyl]ethyl]guanidine trihydrochloride.dihydrate], the ED50 is 0.31 mg/kg. With `O=C(NCCN1CCC(Nc2nc3ccccc3n2Cc2ccc(F)cc2)CC1)c1cc2ccccc2[nH]1` [Compound 76, N-[2-[4-[[1-[(4-fluorophenyl)methyl]-1H-benzimidazol-2-yl]amino]-1-piperidinyl]ethyl]-1H-indole-2-carboxamide], the ED50 came out at 0.16 mg/kg.

As to `Fc1ccc(Cn2c(NC3CCN(CCNc4nccn4-c4ncccn4)CC3)nc3ccccc32)cc1` [Compound 105], the ED50 is 0.16 mg/kg. The same measure, in the same setting: then `Fc1ccc(Cn2c(NC3CCN(CCCCNc4nccs4)CC3)nc3ccccc32)cc1` [Compound 53], with 0.31 mg/kg. The same measure, in the same setting: next, `Fc1ccc(Cn2c(NC3CCN(CCNc4nc5ccccc5s4)CC3)nc3ccccc32)cc1` [Compound 19]: 0.31 mg/kg; `Nc1nc(CCN2CCC(Nc3nc4ccccc4n3Cc3ccc(F)cc3)CC2)cs1` [Compound 91, N-[1-[2-(2-amino-4-thiazolyl)ethyl]-4-piperidinyl]-1-[(4-fluorophenyl)methyl]-1H-benzimidazol-2-amine]: 0.08 mg/kg; `Cn1cnc([N+](=O)[O-])c1NCCN1CCC(Nc2nc3ccccc3n2Cc2ccc(F)cc2)CC1` [Compound 12]: 0.31 mg/kg.

Take `Fc1ccc(Cn2c(NC3CCN(CCSc4nc5ccccc5o4)CC3)nc3ccccc32)cc1` [Compound 73, N-[1-[2-[(2-benzoxazolyl)thio]ethyl]-4-piperidinyl]-1-[(4-fluorophenyl)methyl]-1H-benzimidazol-2-amine]: the ED50 stood at 0.63 mg/kg. For the compound `O=[N+]([O-])c1cnc(NCCN2CCC(Nc3nc4ccccc4n3Cc3ccc(F)cc3)CC2)s1` [Compound 32], the ED50 was 0.63 mg/kg. Consider `CCn1nnnc1OCCN1CCC(Nc2nc3ccccc3n2Cc2ccc(F)cc2)CC1` [Compound 10, N-[1-[2-[(1-ethyl-1H-tetrazol-5-yl)oxy]ethyl]-4-piperidinyl]-1-[(4-fluorophenyl)methyl]-1H-benzimidazol-2-amine (E)-2-butenedioate (2:5)], for which the ED50 came out at 0.04 mg/kg.

For the compound `CCn1nnnc1SCCN1CCC(Nc2nc3ccccc3n2Cc2ccc(F)cc2)CC1` [Compound 74, N-[1-[2-[(1-ethyl-1H-tetrazol-5-yl)thio]ethyl]-4-piperidinyl]-1-[(4-fluorophenyl)methyl]-1H-benzimidazol-2-amine], the ED50 worked out at 0.08 mg/kg. For the compound `CCOC(=O)N(CCN1CCC(Nc2nc3ccccc3n2Cc2ccc(F)cc2)CC1)c1nccs1` [Compound 101, ethyl[2-[4-[[1-[(4-fluorophenyl)methyl]-1H-benzimidazol-2-yl]amino]-1-piperidinyl]ethyl](2-thiazolyl)carbamate], the ED50 came out at 0.31 mg/kg.

Staying with this assay, now noted: dose protecting 50% of animals; subcutaneous or oral, 1 h before compound 48/80 0.5 mg/kg i.v.; survival after 4 h; 0.5 mg/kg, 240 min.
Turning to `Fc1ccc(Cn2c(NC3CCN(CCNc4nccs4)CC3)nc3ccccc32)cc1` [Compound 16], the “compound 48/80 lethality test in rats-ED50” value was 0.08 mg/kg body weight.
